Results taken from patent US20180099931A1 (AbbVie S.à.r.l., priority 2016, published 2018).
Where two headings read alike, the source gives them in different places.

Target: T1, F508delCFTR (Homo sapiens, UniProt P13569, DEL508-508)
T1 construct: expressed in transfected cells; host or cells: CFBE41o- human lung-derived epithelial cells (CFBE4lo-F508delCFTR-HRP), doxycycline-inducible
Experiment: Cell Surface Expression-Horse Radish Peroxidase (CSE-HRP) Assay;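 on Maximum % activity (with co-corrector): co-corrector and positive control are both the same reference corrector at 2 µM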;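 on Maximum % activity (without co-corrector): percent of the 2 µM on-plate positive control corrector response above DMSO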
Type: cell-based
Settings: for Maximum % activity (with co-corrector) / Emax: maximum at any tested concentration, normalized to on-plate positive control; for Emax: read-out: Maximum % activity (without co-corrector)
Experimental: Cell Surface Expression-Horse Radish Peroxidase (CSE-HRP) Assay;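 on Maximum % activity (with co-corrector): co-corrector and positive control are both the same reference corrector at 2 µM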;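 on Maximum % activity (without co-corrector): percent of the 2 µM on-plate positive control corrector response above DMSO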
The development was achieved by expressing the F508delCFTR mutation along with a horseradish peroxidase (HRP) in the fourth exofacial loop, and then measuring the HRP activity using luminescence readout from these cells, CFBE4lo-F508delCFTR-HRP, that were incubated overnight with the test corrector compounds, either without or with the co-corrector. […] The test compounds were then added either without or with a co-corrector at the required concentrations and further incubated for 18-24 hours at 33° C. The highest concentration tested was 20 μM with an 8-point concentration response curve using a 3-fold dilution in both the test compound without or with the co-corrector. Three replicate plates were run to determine one EC50. All plates contained negative controls (dimethyl sulfoxide, DMSO) and positive control (2 μM of 3-[(2R,4R)-4-({[1-(2,2-difluoro-1,3-benzodioxol-5-yl)cyclopropyl]carbonyl}amino)-7-methoxy-3,4-dihydro-2H-chromen-2-yl]benzoic acid) as well as on-plate concentration response of the positive control. […] The raw counts from the experiment were analyzed using Accelrys® Assay Explorer v3.3.
1−[3*SDPositive Control+3*SDNegative Control/Absolute(MeanPositive Control−MeanNegative Control)]
wherein “SD” is standard deviation.
The % activity measured at each of the 8 test concentrations of the test compound added either without or with a co-corrector (2 μM of 3-[(2R,4R)-4-({[1-(2,2-difluoro-1,3-benzodioxol-5-yl)cyclopropyl]carbonyl}amino)-7-methoxy-3,4-dihydro-2H-chromen-2-yl]benzoic acid) was normalized to the on-plate positive control using the following formulae:
% activity(Test compound without co-corrector)=[(test compound without co-corrector response−DMSO response)/(positive control response−DMSO response)]*100
% activity(Test compound with co-corrector)=[(test compound with co-corrector response−DMSO response)/(positive control response−DMSO response)]*100
The maximum % activity achieved for the test compound either without or with a co-corrector at any tested concentration is presented in Table 4 along with the respective EC50's calculated using the following general sigmoidal curve with variable Hill slope equation (described as Model 42 in the Accelrys® Assay Explorer v3.3 software):
General sigmoidal curve with concentration, response, top, bottom, EC50 and Hill slope. This model describes a sigmoidal curve with an adjustable baseline, a. The equation can be used to fit curves where response is either increasing or decreasing with respect to the independent variable, “x”.
“x” is a concentration of drug under test. “y” is the response. “a” is the maximum response, and “d” is the minimum response “c” is the inflection point (EC50) for the curve. That is, “y” is halfway between the lower and upper asymptotes when x=c. “b” is the slope-factor or Hill coefficient. The sign of b is positive when the response increases with increasing dose and is negative when the response decreases with increasing dose (inhibition).

[1] = CSE-HRP, test compound without co-corrector, read-out: EC50 (without co-corrector)
[2] = CSE-HRP, with co-corrector (2 μM of 3-[(2R,4R)-4-({[1-(2,2-difluoro-1,3-benzodioxol-5-yl)cyclopropyl]carbonyl}amino)-7-methoxy-3,4-dihydro-2H-chromen-2-yl]benzoic acid), read-out: EC50 (with co-corrector)
[3] = CSE-HRP, with co-corrector (2 μM)
[4] = test compound without co-corrector
[5] = test compound without co-corrector, read-out: EC50 (without co-corrector)
[6] = with co-corrector (2 μM of 3-[(2R,4R)-4-({[1-(2,2-difluoro-1,3-benzodioxol-5-yl)cyclopropyl]carbonyl}amino)-7-methoxy-3,4-dihydro-2H-chromen-2-yl]benzoic acid)
[7] = with co-corrector (2 μM of 3-[(2R,4R)-4-({[1-(2,2-difluoro-1,3-benzodioxol-5-yl)cyclopropyl]carbonyl}amino)-7-methoxy-3,4-dihydro-2H-chromen-2-yl]benzoic acid), read-out: EC50 (with co-corrector)

T1 sequence (P13569 with tags, fused parts or gaps DEL508-508): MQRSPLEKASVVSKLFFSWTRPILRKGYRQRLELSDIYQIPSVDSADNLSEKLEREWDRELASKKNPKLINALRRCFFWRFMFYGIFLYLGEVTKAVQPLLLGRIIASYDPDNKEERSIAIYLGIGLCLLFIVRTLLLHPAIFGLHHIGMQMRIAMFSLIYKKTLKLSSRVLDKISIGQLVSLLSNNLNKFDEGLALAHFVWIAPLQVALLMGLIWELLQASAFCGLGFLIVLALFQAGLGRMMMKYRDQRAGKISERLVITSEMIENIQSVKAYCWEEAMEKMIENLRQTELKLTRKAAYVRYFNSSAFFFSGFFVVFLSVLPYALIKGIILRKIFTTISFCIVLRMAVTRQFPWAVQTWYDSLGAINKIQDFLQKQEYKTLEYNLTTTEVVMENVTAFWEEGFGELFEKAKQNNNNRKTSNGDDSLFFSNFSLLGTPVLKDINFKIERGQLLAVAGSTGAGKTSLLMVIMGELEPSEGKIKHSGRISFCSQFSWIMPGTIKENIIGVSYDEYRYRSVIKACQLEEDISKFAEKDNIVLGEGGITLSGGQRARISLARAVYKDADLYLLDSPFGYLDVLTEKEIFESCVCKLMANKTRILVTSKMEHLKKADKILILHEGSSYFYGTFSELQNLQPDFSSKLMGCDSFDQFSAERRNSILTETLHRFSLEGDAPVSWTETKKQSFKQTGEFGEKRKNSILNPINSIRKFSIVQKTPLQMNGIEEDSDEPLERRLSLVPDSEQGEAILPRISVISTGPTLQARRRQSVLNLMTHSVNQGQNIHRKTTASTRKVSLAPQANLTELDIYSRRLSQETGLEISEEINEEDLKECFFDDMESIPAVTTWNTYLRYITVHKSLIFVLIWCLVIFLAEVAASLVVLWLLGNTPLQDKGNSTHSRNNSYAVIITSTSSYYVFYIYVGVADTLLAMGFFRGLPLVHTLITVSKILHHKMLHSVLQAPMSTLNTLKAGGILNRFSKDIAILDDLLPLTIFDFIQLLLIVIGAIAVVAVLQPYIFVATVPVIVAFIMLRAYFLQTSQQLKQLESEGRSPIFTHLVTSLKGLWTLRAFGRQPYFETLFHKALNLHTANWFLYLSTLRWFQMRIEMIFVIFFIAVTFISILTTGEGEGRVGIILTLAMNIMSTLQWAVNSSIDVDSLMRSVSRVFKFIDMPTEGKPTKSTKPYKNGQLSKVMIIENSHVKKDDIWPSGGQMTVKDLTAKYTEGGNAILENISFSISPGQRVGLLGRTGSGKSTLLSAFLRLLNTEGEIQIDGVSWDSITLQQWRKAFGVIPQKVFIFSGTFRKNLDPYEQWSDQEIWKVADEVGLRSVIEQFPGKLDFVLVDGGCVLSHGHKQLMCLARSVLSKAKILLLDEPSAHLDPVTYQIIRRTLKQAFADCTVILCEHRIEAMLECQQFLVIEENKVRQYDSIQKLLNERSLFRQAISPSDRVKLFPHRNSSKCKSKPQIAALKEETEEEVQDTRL

| SMILES | EC50 [1] | EC50 [2] | Maximum % activity (with co-corrector) [3] | Emax (CSE-HRP, without co-corrector) | Emax [4] | EC50 [5] | Maximum % activity (with co-corrector) [6] | EC50 [7] | Maximum % activity (with co-corrector) (with co-corrector (2 μM)) | Emax (without co-corrector) |
| --- | --- | --- | --- | --- | --- | --- | --- | --- | --- | --- |
| COc1ncc(F)cc1CN[C@@H]1[C@@H](C(C)(C)C)[C@H](C(=O)O)N(C(=O)C2CCCCC2)[C@@H]1c1ccccc1 (racemic) [II-30] | 1000 to 10000 nM | 1000 to 10000 nM | +++ (≥350) | 100 to 200% |  |  |  |  |  |  |
| COc1ccc(C(C)(C)C)cc1CN[C@H]1[C@H](C(C)(C)C)[C@@H](C(=O)O)N(C(=O)C2CC2(F)F)[C@H]1c1ccccc1 (stereo partly drawn) [II-327] |  |  |  |  | 100 to 200% | 1000 to 10000 nM | +++ (≥350) | 1000 to 10000 nM |  |  |
| COc1cc(C(F)(F)F)cc(N[C@@H]2[C@@H](C(C)(C)OC)[C@H](C(=O)O)N(C(=O)C3CCCCC3)[C@@H]2c2ccccc2)n1 (racemic) [Example I-38] |  |  |  |  |  | 1000 to 10000 nM |  | 1000 to 10000 nM | ++ (≥150 and <350) | < 100% |
| COc1nc(C(C)(C)C)ccc1CN[C@H]1[C@H](C(C)(C)C)[C@@H](C(=O)O)N(C(=O)[C@@H]2CCC[C@H](OC)C2)[C@H]1c1ccccc1 (relative stereo) [Example I-198] |  |  |  |  |  | 1000 to 10000 nM |  | 1000 to 10000 nM | +++ (≥350) | < 100% |
| COc1ccc(-c2ccc(F)cc2F)cc1CN[C@H]1[C@H](C(C)(C)C)[C@@H](C(=O)O)N(C(=O)C2CCCCC2)[C@H]1c1ccccc1 [II-283] | < 1000 nM | < 1000 nM | +++ (≥350) | > 200% |  |  |  |  |  |  |
| CC(C)OC(=O)N1[C@H](c2ccccc2)[C@H](Nc2cccc(C(F)(F)F)n2)[C@@H](C(C)(C)C)[C@@H]1C(=O)O (racemic) [III-44] |  |  |  |  | < 100% | 1000 to 10000 nM | ++ (≥150 and <350) | 1000 to 10000 nM |  |  |
| COc1ccc(C(C)(C)C)cc1CN[C@H]1[C@H](C(C)(C)C)[C@@H](C(=O)O)N(C(=O)C2CCCCC2C(=O)N2CCC2)[C@H]1c1ccccc1 (stereo partly drawn) [Example I-149] |  |  |  |  |  | 1000 to 10000 nM |  | 1000 to 10000 nM | +++ (≥350) | > 200% |
| COc1ccc(C(C)(C)C)cc1CN[C@H]1[C@H](C(C)(C)C)[C@@H](C(=O)O)N(C(=O)c2cnn(C(C)(C)C)c2C#N)[C@H]1c1ccccc1 [II-355] |  |  |  |  | 100 to 200% | 1000 to 10000 nM | +++ (≥350) | < 1000 nM |  |  |
| Cc1cc(C(F)(F)F)cc(N[C@@H]2[C@@H](C(C)(C)C)[C@H](C(=O)NS(=O)(=O)C(C)(C)C)N(C(=O)C3CCCCC3)[C@@H]2c2ccccc2)n1 (racemic) [III-50] |  |  |  |  | < 100% | > 10000 nM | ++ (≥150 and <350) | 1000 to 10000 nM |  |  |
| CC(C)(C)[C@H]1[C@H](NCc2cc(Cl)ccc2OCC2CC2)[C@H](c2ccccc2)N(C(=O)C2CCCCC2)[C@@H]1C(=O)O [II-139] | 1000 to 10000 nM | 1000 to 10000 nM | ++ (≥150 and <350) | < 100% |  |  |  |  |  |  |
| COc1ccc(C(F)(F)F)cc1CN[C@@H]1[C@@H](C(C)(C)C)[C@H](C(=O)O)N(C(=O)C(C)Oc2ccccc2)[C@@H]1c1ccccc1 (relative stereo) [Example I-32] |  |  |  |  |  | 1000 to 10000 nM |  | 1000 to 10000 nM | +++ (≥350) | < 100% |
| COc1ccc(C(C)C)cc1CN[C@H]1[C@H](C(C)(C)C)[C@@H](C(=O)O)N(C(=O)OC(C)C)[C@H]1c1ccccc1 [II-169] | 1000 to 10000 nM | 1000 to 10000 nM | +++ (≥350) | > 200% |  |  |  |  |  |  |
